Like-named read-outs stand apart in the source and are kept apart here.
Legend:
[1] = test system: Malassezia furfur (ATCC 14521); test: Minimum inhibitory concentration (MIC) against Malassezia furfur in mDixon agar; type: cell-based; conditions: for MIC: Malassezia furfur, lowest tested dilution with no visible growth, 30° for 5 days
Protocol: Antifungal activity is assessed microbiologically by a method as described below^1.
^1. The Minimum Inhibitory Concentration is indicative of anti-fungal efficacy. Generally, the lower the value of the composition, the better its anti-fungal efficacy, due to increased inherent ability of the anti-dandruff agent to inhibit the growth of microorganisms.
Dilutions of solubilized anti-microbial active were then added to test tubes containing molten mDixon agar. M. furfur inoculum was added to each tube of molten agar, the tube vortexed, and the contents poured into separate sterile petri dishes. […] The lowest tested dilution of anti-microbial active that yields no growth is defined as the Minimal Inhibitory Concentration (MIC).
1) Malassezia furfur was grown in a 250 ml Erlenmeyer flask containing 100 ml “mDIXON” medium at 320 rpm and 30° C. until turbid.
2) Selected dilutions were prepared using an appropriate dilution series, of the anti-microbial active or combination in solvent, which allowed the sample active to be solubilized prior to addition to the final test agar.
3) 0.25 ml dilutions of anti-microbial active were added to test tubes containing 9.5 ml molten “mDIXON” agar (held at 45° C. in a water bath).
4) 0.25 M. furfur inoculum (adjusted to 5×10^5 cfu/ml by direct count) was added to each test tube of molten agar.
5) Each tube was vortexed, and the contents poured into separate petri dishes.
6) After the agar solidified, the plates inverted and incubated at 30° for 5 days.
7) The plates were then observed for visible M. furfur growth.
Anti-fungal activity of materials having zinc ionophoric behavior was screened by measurement of minimum inhibitory concentrations (MIC's) against Malassezia furfur.

[2] = test system: human umbilical vein endothelial cells; test: Rate of zinc transport into model cells (intracellular zinc, Fura-2 fluorescence); type: cell-based; conditions: 1 mM ZPT (0.32 ppm) and an equal weight proportion of zinc salt
Protocol: Measurement of the free zinc levels in cells as a function of time is a direct measure of delivery of zinc across the cell wall/membrane. There are many methods available for assessing this process, many are based on use of intracellular fluorescent dyes. An exemplary method is similar to that reported by Turan et al. (Turan, […]. Am. J. Physiol. 1997, 272, […]-[…]). In this case, […] used, although the procedure is general and can be used with all eukaryotic cells. […] Cells are plated onto a glass cover slip. These immobilized cells are then exposed to a zinc-responsive fluorescent dye such as Fura-2 (Molecular Probes, Inc.) to load the cells with this cell-permeant fluorophore. The cells are then washed to remove dye that is not intracellular. Upon exposure to test treatments, fluorescence is measured as a function of time; in the case of Fura-2, the ratio of fluorescence intensities at 505 nm is taken in response to excitation at 340 and 380 nm. The fluorescence is conveniently measured by using an epifluorescence inverted microscope interfaced to a spectrofluorometer. Fluorescence intensity is proportional to the detected zinc level. […] TPEN) to assure the measured fluorescent response is due to zinc and not an artifact of calcium transport. In the present invention, the method as described herein may be used to identify materials with zinc ionophoric behavior.

[3] = Zinc availability test with metallochromic dye zincon (colour change orange to blue); type: physicochemical; conditions: ~30 mg/10 ml water, pH 7-11, zincon in ethanol
Text: Zinc-containing materials (ZCMs) differ with respect to how strongly the zinc ion (Zn^2+) is held by counterions in the crystal lattice. The benefits discussed herein depend upon having available Zn^2+. […] The response is a binary visual assessment of whether or not the color changes indicating zinc-binding.
The method is based on the commercial metallochromic dye zincon. Zincon changes from an orange color to blue upon binding zinc and provides the basis for detecting available Zn^2+: [drawing 20]
The specific procedure involves making a stock solution of zincon in ethanol (˜50 mg/10 ml ethanol). The ZCM is then added to water (˜30 mg/10 ml water) and agitated (pH range should be 7-11). Three to four drops of zincon solution are then added to the ZCM in water, agitated and a visual assessment of color change made.

[4] = ATCC14521, 120 h, read-out: MIC
[5] = to inhibit M. furfur growth, zinc salt alone (MIC) or together with the stated amount of ZPT

Compound: Oc1c(Br)cc(Br)c2cccnc12 [5,7-D-Br-8-HQ, 5-7-Bibromo-8-hydroxyquinoline]
- MIC [1, 4]: 25 µg/mL

Compound: CNc1ccc2oc(C[C@H]3O[C@@]4(CC[C@H]3C)O[C@H]([C@H](C)C(=O)c3ccc[nH]3)[C@H](C)C[C@H]4C)nc2c1C(=O)O [A23187, Calcimycin]
- MIC [1, 4]: > 13 µg/mL

Compound: Oc1c(I)cc(I)c2cccnc12 [Diodoquin, 5,7-Diiodo-8-hydroxyquinoline]
- MIC [1, 4]: 25 µg/mL

Compound: Oc1c(I)cc(Cl)c2cccnc12 [Enterovioform, 5-Cl, 7-I-8-hydroxyquinoline]
- MIC [1, 4]: 25 µg/mL

Compound: Cc1ccc2c(Cl)cc(Cl)c(O)c2n1 [Sterosan, 2-Me, 5,7-Dichloro-8-hydroxyquinoline]
- MIC [1, 4]: 100 µg/mL

Compound: CCCCN(CCCC)C(=S)SSC(=S)N(CCCC)CCCC [TBTDS, Tetra-n-butyl thiuram Disulfide]
- MIC [1, 4]: > 1000 µg/mL

Compound: [O-]n1ccccc1=S.[O-]n1ccccc1=S.[Zn+2] [ZPT, zinc salt of 1-hydroxy-2-pyridinethione]
- Antifungal activity of ZPT: Amount of zinc salt required [1, 5]: 0 ppm
- Antifungal activity of ZPT: Amount of ZPT Required (%) ([1]; to inhibit M. furfur growth, 100% ZPT is equivalent to 8 ppm (MIC of ZPT alone)): 100%
- Rate of Zinc Transport [2]: 4 min⁻¹

Compound: [O]=[Zn] [ZnO, zinc oxide]
- Antifungal activity of ZPT: Amount of zinc salt required [1, 5]: 500 ppm
- Rate of Zinc Transport [2]: ˜0 min^−1
- available Zn^2+ (zincon colour change, binary visual assessment) [3]: have available zinc

Compound: O=S(=O)([O-])[O-].[Zn+2] [ZnSO4, zinc sulfate]
- Antifungal activity of ZPT: Amount of zinc salt required [1]: 5000 ppm
- Rate of Zinc Transport [2]: ˜0 min^−1
- available Zn^2+ (zincon colour change, binary visual assessment) [3]: have available zinc

Compound: O=C([O-])CN(CCN(CC(=O)[O-])CC(=O)[O-])CC(=O)[O-].[Na+].[Na+].[Zn+2] [zinc EDTA]
- available Zn^2+ (zincon colour change, binary visual assessment) [3]: not having available Zn^2+

Compound: CC(=O)[O-].CC(=O)[O-].[Zn+2] [zinc acetate]
- available Zn^2+ (zincon colour change, binary visual assessment) [3]: have available zinc

Compound: N=C(N)NCCC[C@H](N)C(=O)O.[Zn] [zinc arginine]
- available Zn^2+ (zincon colour change, binary visual assessment) [3]: have available zinc

Compound: [Cl-].[Cl-].[Zn+2] [zinc chloride]
- available Zn^2+ (zincon colour change, binary visual assessment) [3]: have available zinc

Compound: O=C([O-])CC(O)(CC(=O)[O-])C(=O)[O-].O=C([O-])CC(O)(CC(=O)[O-])C(=O)[O-].[Zn+2].[Zn+2].[Zn+2] [zinc citrate]
- available Zn^2+ (zincon colour change, binary visual assessment) [3]: have available zinc

Compound: [OH-].[OH-].[Zn+2] [zinc hydroxide]
- available Zn^2+ (zincon colour change, binary visual assessment) [3]: have available zinc

Compound: CC(O)C(=O)[O-].CC(O)C(=O)[O-].[Zn+2] (centres unmarked) [zinc lactate]
- available Zn^2+ (zincon colour change, binary visual assessment) [3]: have available zinc

Compound: OCC(O)CO.[Zn] [zinc monoglycerolate]
- available Zn^2+ (zincon colour change, binary visual assessment) [3]: have available zinc

Compound: O=C([O-])C(=O)[O-].[Zn+2] [zinc oxalate]
- available Zn^2+ (zincon colour change, binary visual assessment) [3]: have available zinc

Compound: Lasalocid
- MIC [1]: >1000 ppm

Compound: zinc hexaborate
- available Zn^2+ (zincon colour change, binary visual assessment) [3]: have available zinc

Compound: zinc histadine
- available Zn^2+ (zincon colour change, binary visual assessment) [3]: have available zinc

Compound: zinc phytate
- available Zn^2+ (zincon colour change, binary visual assessment) [3]: not having available Zn^2+

Compound: zinc stearate
- available Zn^2+ (zincon colour change, binary visual assessment) [3]: have available zinc

Source: patent US20040058855A1, “Use of materials having zinc ionophoric behavior” (priority 2002, published 2004)
